Laboratory results as given in patent US20230322753A1, “HETEROARYL DERIVATIVE, METHOD FOR PREPARATION THEREOF, AND PHARMACEUTICAL COMPOSITION COMPRISING SAME AS ACTIVE INGREDIENT” (VORONOI INC., priority 2020, published 2023).

Columns and labels:
Type in all cases: cell-based
Conditions in all cases: Mus musculus, BaF3, 72 hours, CellTiter-Glo
[1] = test system: Ba/F3 cells expressing EGFR Exon20 ins NPH; test: Ba/F3 proliferation suppression activity, cells expressing EGFR Exon20 ins NPH
Protocol: A following experiment was carried out to evaluate the suppression activity of the compounds according to the present invention against the proliferation of Ba/F3 which expresses EGFR mutations.
(§1) For the Ba/F3 cells, a RPMI-1640 medium containing 10% FBS and 5 ng/ml IL-3 (R&D Systems) was used. The transduced Ba/F3 cells were cultured in a medium, which is same as the above medium, but 1 ug/ml puromycin (Invitrogen) was additionally added to.
(§2) 24 hours before the treatment of the cells with the compounds, 3000 to 5000 cells were distributed into each well of a white clear bottom 96 well plate (Corning). The compounds were diluted in a dimethyl sulfoxide (e.g. dilution ratio of 3:1 and total 12 concentrations) and then injected by 0.5 ul respectively, such that a final concentration amounted to 0.3 nM to 50 uM. 72 hours after the treatment with the compounds, the measurement of live cells was made in such way that these cells were stored for 10 minutes at a room temperature using a CellTiter-Glo luminescent cell-viability reagent (Promega) and then their luminescence intensities were measured using a reader (i.e. Synergy Neo, Biotek). Each test was repeated three times.
(§3) resulting values were calculated as a cell growth ratio (%) compared to a control. Then, the graphs were drawn and the […] values were calculated by using a program, GraphPad Prism version 5.0.

[2] = test system: Ba/F3 cells expressing HER2 WT; test: Ba/F3 proliferation suppression activity, cells expressing ErbB2 (HER2) wild type
Protocol: as §1, §2, §3

[3] = test system: Ba/F3 cells expressing HER2 YVMA Exon 20ins; test: Ba/F3 proliferation suppression activity, cells expressing HER2 YVMA Exon 20ins
Protocol: as §1, §2, §3

GI50 [1]: < 50 nM | GI50 [2]: < 50 nM | GI50 [3]: < 50 nM
Structure (SMILES): C=CCN1CCN(c2cc(OC)c(Nc3cc(N4OCC[C@@H]4c4ccc(F)c(C(F)(F)F)c4)ncn3)cc2NC(=O)C=C)CC1 [Compound 41]
